From patent US20210346359A1, “Use of CFTR Modulators For Treating Cerebrovascular Conditions” (Qanatpharma AG, priority 2018, published 2021) come the findings set out here.

The target of assay [1] is T1, CFTR (Mus musculus, UniProt P26361). Put plainly: Forskolin-stimulated iodide efflux in vascular smooth muscle cells. The format is cell-based. Also noted: mesenteric artery segments were isolated, cut into small pieces and digested with trypsin, collagenase and elastase; endogenous in cells; host or cells: primary mesenteric artery vascular smooth muscle cells. The conditions noted are these: primary vascular smooth muscle cells; 48 h TNF 10 ng/ml + C18 6 μmol/L for last 24 h. As to the method: Procedures for isolating and culturing mesenteric artery smooth muscle cells were carried out as described in (10). Briefly, mesenteric artery segments were isolated, cut into small pieces and digested with trypsin, collagenase and elastase. The resulting cell suspension was washed several times in phosphate-buffered saline and plated in Dulbecco's Modified Eagle Medium (DMEM) culture media containing 10% fetal bovine serum and 1% penicillin-streptomycin. Cell cultures were maintained at 37° C. with 5% CO2 and split at 106 cells seeding density. […]
Iodide efflux measurements were conducted as previously described (18). […] Supernatant iodide levels were quantified with an iodide-selective electrode (Lazar Research Laboratories; Los Angeles, USA), calibrated with Nal standards. Pre-stimulation iodide levels were determined and then cells were stimulated with a cocktail containing 10 μmol/L forskolin, 1 mmol/L isobutylmethylxanthine and 100 μmol/L cpt-cAMP (in 1% v/v DMSO). […] Supernatant iodide levels were determined over seven consecutive 1-minute intervals post-stimulation. […] The maximum efflux rate, therefore, was calculated using the measured efflux level between 60-120 seconds post-stimulation (18).

The subject of assay [2] is mice with heart failure. The assay is described as follows: Golgi stain / Sholl analysis of cortical neuron dendrite morphology in heart failure mice. The format is in vivo, mouse. The conditions noted are these: 3 mg/kg i.p. daily for 2 weeks. From the text:
Brains were perfused with heparinized saline via transcardiac perfusion, isolated and processed stained utilizing a commercially available Rapid GolgiStain kit (FD NeuroTechnologies Inc.; Columbia, USA). The kit uses a modified Golgi-Cox staining procedure originally described by Glaser and Van der Loos (24). Briefly, isolated brain tissue samples were immersed in a kit-provided solution containing mercuric chloride, potassium dichromate and potassium chromate in the dark for 8 days; this was followed by a 6-day incubation with tissue protection solution. The brain samples were then washed, embedded in 4% low gelling agarose, sectioned in the coronal plane (150 μm thickness; Campden Instruments 7000 smz-2 vibrating microtome) and mounted onto gelatin-coated glass slides. The staining procedure was then completed using kit-provided developing/staining reagents, according to the manufacturer's instructions. […] We analyzed both the basal and apical dendrite networks of pyramidal cortical neurons from the frontal cortex, using a quantitative approach originally described by Shall (25). We utilized Image J software coupled with the semi-automated Simple Neurite Tracer plugin (both freely available from the NIH) to identify and digitally isolate the dendrite networks of a single cortical neuron from a 200× magnification hyperstack image. The center of the soma was marked with the pointer tool; dendrite morphology was then characterized by Sholl analysis (see https://imagej.net/Sholl_Analysis, version 3.7.4), using 5 μm intervals to a maximal radius of 300 μm. This analysis characterizes dendrite morphology in terms of dendrite intersections (i.e., branching) and dendrite length. For each treatment group, 2-4 neurons per mouse from 4 mice were analyzed under blinded conditions. To assess dendritic spine density (i.e., the number of small protrusions found on dendrites), we imaged 3rd branch order dendritic segments at 100× magnification. Spine density was measured as the number of spines per segment for the following segments: 20-50 μm from soma; 30-60 μm from soma; 50-80 μm from soma; and 60-100 μm from soma). This “sliding measurement” approach permits an assessment of how spine density changes over the length of dendritic branch. For each treatment group, spine density was measured in 2-4 pyramidal cortical neurons (2-4 third order branches per neuron) per mouse from 3-4 mice per group, under blinded conditions.

Assay [3] deals with T1, CFTR. Put plainly: CFTR protein expression in TNF-treated mesenteric artery primary vascular smooth muscle cells. In kind it is cell-based. Set-up: mesenteric artery segments were isolated, cut into small pieces and digested with trypsin, collagenase and elastase; endogenous in cells; host or cells: primary mesenteric artery vascular smooth muscle cells. The conditions noted are these: 48 h TNF 10 ng/ml + C18 6 μmol/L for last 24 h. As to the method: Procedures for isolating and culturing mesenteric artery smooth muscle cells were carried out as described in (10). Briefly, mesenteric artery segments were isolated, cut into small pieces and digested with trypsin, collagenase and elastase. The resulting cell suspension was washed several times in phosphate-buffered saline and plated in Dulbecco's Modified Eagle Medium (DMEM) culture media containing 10% fetal bovine serum and 1% penicillin-streptomycin. Cell cultures were maintained at 37° C. with 5% CO2 and split at […] cells seeding density. Baby hamster kidney fibroblast cells stably expressing wild-type human CFTR (10,17) were maintained in DMEM/F12 media containing 5% fetal bovine serum and 250 μmol/L methotrexate (which activates the CFTR transgene promoter). Cells were maintained under standard cell culture conditions at 37° C. with 5% CO2.
Western blots for CFTR were completed as previously described (12, 18). […]
The primary antibodies were conjugated with either peroxidase-labeled donkey anti-rabbit IgG (GE Healthcare Amersham (Piscataway, USA) cat# NA934) or peroxidase-labeled goat anti-mouse IgG (GE Healthcare Amersham cat# NA931) secondary antibodies. […] Developed films were evaluated densitometrically using “Image J” software (freely available from the NIH); digital images were evaluated with Image Lab software (Bio-Rad).

“Also recorded” adds a separate entry of the source.

T1 sequence (P26361 whole entry): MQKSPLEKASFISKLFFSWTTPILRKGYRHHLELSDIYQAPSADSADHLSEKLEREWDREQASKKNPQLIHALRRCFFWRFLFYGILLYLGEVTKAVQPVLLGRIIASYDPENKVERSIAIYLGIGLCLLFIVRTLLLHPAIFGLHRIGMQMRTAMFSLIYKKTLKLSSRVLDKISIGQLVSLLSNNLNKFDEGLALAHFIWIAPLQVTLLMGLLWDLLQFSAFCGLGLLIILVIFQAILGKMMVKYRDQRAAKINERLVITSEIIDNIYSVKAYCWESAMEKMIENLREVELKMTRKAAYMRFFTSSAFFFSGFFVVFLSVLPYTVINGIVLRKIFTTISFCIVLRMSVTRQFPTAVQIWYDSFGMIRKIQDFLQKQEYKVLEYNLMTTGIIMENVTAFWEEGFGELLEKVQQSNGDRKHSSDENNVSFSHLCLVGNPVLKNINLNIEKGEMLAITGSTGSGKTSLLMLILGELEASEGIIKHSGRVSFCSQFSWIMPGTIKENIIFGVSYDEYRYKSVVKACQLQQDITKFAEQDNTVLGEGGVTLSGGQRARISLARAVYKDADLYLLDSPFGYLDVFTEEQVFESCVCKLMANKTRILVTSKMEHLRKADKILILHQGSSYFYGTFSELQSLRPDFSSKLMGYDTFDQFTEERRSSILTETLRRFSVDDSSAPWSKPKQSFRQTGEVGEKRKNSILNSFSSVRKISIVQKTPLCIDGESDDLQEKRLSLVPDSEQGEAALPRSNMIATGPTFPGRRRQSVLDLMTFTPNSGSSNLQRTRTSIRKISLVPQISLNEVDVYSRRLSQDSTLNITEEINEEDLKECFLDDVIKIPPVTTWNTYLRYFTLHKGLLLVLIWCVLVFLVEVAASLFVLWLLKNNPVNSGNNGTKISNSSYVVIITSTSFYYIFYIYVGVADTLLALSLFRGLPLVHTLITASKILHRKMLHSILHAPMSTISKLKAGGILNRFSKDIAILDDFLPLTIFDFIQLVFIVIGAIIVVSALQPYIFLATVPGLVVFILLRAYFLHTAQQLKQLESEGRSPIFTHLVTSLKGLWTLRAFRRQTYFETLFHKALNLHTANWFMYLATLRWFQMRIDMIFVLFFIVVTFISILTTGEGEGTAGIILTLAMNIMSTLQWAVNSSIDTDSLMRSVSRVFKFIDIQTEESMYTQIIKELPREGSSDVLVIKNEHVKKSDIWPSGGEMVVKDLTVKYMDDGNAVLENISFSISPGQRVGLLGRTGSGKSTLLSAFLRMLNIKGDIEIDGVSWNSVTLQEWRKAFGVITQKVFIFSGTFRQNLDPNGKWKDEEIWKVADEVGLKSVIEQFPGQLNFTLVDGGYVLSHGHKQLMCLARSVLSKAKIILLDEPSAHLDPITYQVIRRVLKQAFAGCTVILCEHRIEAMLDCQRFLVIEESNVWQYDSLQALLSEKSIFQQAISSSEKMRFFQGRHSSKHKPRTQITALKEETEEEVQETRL

Turning to `O=C(Nc1ncc(C(c2ccccc2Cl)N2CCC(O)C2)s1)C1(c2ccc3c(c2)OCO3)CC1` (stereo not shown) [C18, 1-(benzo[d][1,3]dioxol-5-yl)-N-(5-((2-chlorophenyl)(3-hydroxypyrrolidin-1-yl)methyl)thiazol-2-yl)cyclopropanecarboxamide], the “forskolin-stimulated iodide efflux after TNF” value in assay [1] is listed as “fully restores; also recorded: normalization”. In assay [2], the “mean apical dendrite length (maximum radius), HF-induced reduction” value is given as “normalized” and the “mean basal dendrite length (maximum radius), HF-induced reduction” value is “normalized”. Moreover, in assay [2] (HF mice, sham vs HF vs HF+C18), the “apical dendrite branching morphology (Sholl analysis)” value is “No differences”; the “basal dendrite branching morphology (Sholl analysis)” value is “no differences”; the “mean apical dendrite spine density at 60-100 μm from soma, group difference” value was “does not reach statistical significance”. Also, in assay [3], the “CFTR protein expression after TNF down-regulation” value was “reverses the decline; also recorded: fully restores”.
